Source: US9493444B2 (Merck Patent GmbH, priority 2012, dated 2016)
pIC50: −log10 of the molar value.

Each molecule was assayed on Wnt pathway (TCF-dependent transcription in HEK293 luciferase reporter cell line with ER-DSH construct) (assay: Cellular assay for Wnt pathway activity (luciferase reporter)). Conditions: Homo sapiens; Wnt pathway inhibition, HEK293 luciferase reporter cells (ER-DSH, TCF promoter), 24 hours incubation, estrogen-induced.
Format: cell-based
Summary of the method: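 Luminescent luciferase read-out after 24 h compound exposure at 1 nM to 30 μM, with TCF-driven transcription switched on by estrogen addition. IC50 values come from curve fits of data normalized against the vehicle-only control.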
With `COc1ccc(Oc2cncc(N(C)CCN(C)C(=O)Cc3cccs3)n2)cc1` [Compound 33, N-(2-{[6-(4-Methoxy-phenoxy)-pyrazin-2-yl]-methyl-amino}-ethyl)-N-methyl-2-thiophen-2-yl-acetamide] the pIC50 was 5.00 to 6.00. With `CC(=O)Nc1ccc(-c2ccc(Oc3cncc(N(C)CCN(C)C(C)=O)n3)c(F)c2)nc1` [Compound 230, N-{6-[4-(6-{[2-(Acetyl-methyl-amino)-ethyl]-methyl-amino}-pyrazin-2-yloxy)-3-fluoro-phenyl]-pyridin-3-yl}-acetamide] the pIC50 was > 6.70. `CC(=O)N(C)CCN(C)c1cncc(Oc2ccc(-c3ccc(CO)nc3)cc2)n1` [Compound 8, N-[2-({6-[4-(6-Hydroxymethyl-pyridin-3-yl)-phenoxy]-pyrazin-2-yl}-methyl-amino)-ethyl]-N-methyl-acetamide] was tested, and the pIC50 was > 6.70. For `CC(=O)N(C)CCN(C)c1cncc(Oc2ccc(N3CCN(C(C)=O)CC3)cc2)n1` [Compound 87, N-[2-({6-[4-(4-Acetyl-piperazin-1-yl)-phenoxy]-pyrazin-2-yl}-methyl-amino)-ethyl]-N-methyl-acetamide], the pIC50 was 6.00 to 6.70. `CC(=O)N(C)CCN(C)c1cncc(Oc2ccc(-c3ccc(N4CCOCC4)nc3)cc2)n1` [Compound 175, N-Methyl-N-[2-(methyl-{6-[4-(6-morpholin-4-yl-pyridin-3-yl)-phenoxy]-pyrazin-2-yl}-amino)-ethyl]-acetamide] was tested, and the pIC50 was > 6.70. Molecule `CC(=O)N1CCCC(CNc2cncc(Oc3ccc(F)cc3)n2)C1` (stereo not drawn) [Compound 39, 1-(3-{[6-(4-Fluoro-phenoxy)-pyrazin-2-ylamino]-methyl}-piperidin-1-yl)-ethanone] has a pIC50 of 5.00 to 6.00. With `CC(=O)N(C)CCCc1cncc(Oc2ccc(F)cc2)c1` [Compound 304, N-{3-[5-(4-Fluoro-phenoxy)-pyridin-3-yl]-propyl}-N-methyl-acetamide] the pIC50 was 6.00 to 6.70. `CCC(=O)N(C)CCN(C)c1cncc(Oc2ccc(OC)cc2)n1` [Compound 35, N-(2-{[6-(4-Methoxy-phenoxy)-pyrazin-2-yl]-methyl-amino}-ethyl)-N-methyl-propionamide] was tested, and the pIC50 was 5.00 to 6.00. `CC(=O)N(C)CCN(C)c1cncc(Oc2ccc(C#N)cc2)n1` [Compound 122, N-(2-{[6-(4-Cyano-phenoxy)-pyrazin-2-yl]-methyl-amino}-ethyl)-N-methyl-acetamide] was tested, and the pIC50 was > 6.70. For `CC(=O)N(C)CCN(C)c1cncc(Oc2ccc(-c3cnc4sc(=O)[nH]c4c3)cc2)n1` [Compound 186, N-Methyl-N-[2-(methyl-{6-[4-(2-oxo-1,2-dihydro-thiazolo[5,4-b]pyridin-6-yl)-phenoxy]-pyrazin-2-yl}-amino)-ethyl]-acetamide], the pIC50 was > 6.70. `CN(CCCN(C)c1cncc(Oc2ccc(F)cc2)n1)C(=O)C(F)(F)F` [Compound 84, 2,2,2-Trifluoro-N-(3-{[6-(4-fluoro-phenoxy)-pyrazin-2-yl]-methyl-amino}-propyl)-N-methyl-acetamide] gave a pIC50 of 5.00 to 6.00. `CC(=O)N(C)CCN(C)c1cncc(Oc2ccc(CO)cc2)n1` [Compound 181, N-(2-{[6-(4-Hydroxymethyl-phenoxy)-pyrazin-2-yl]-methyl-amino}-ethyl)-N-methyl-acetamide] was tested, and the pIC50 was > 6.70. For `CC(=O)NCC(C)Nc1cncc(Oc2ccc(F)cc2)n1` (stereo not drawn) [Compound 289, N-{2-[6-(4-Fluoro-phenoxy)-pyrazin-2-ylamino]-propyl}-acetamide], the pIC50 was 5.00 to 6.00. For `CC(=O)N(C)CCN(C)c1cncc(Oc2ccc3ncccc3c2)n1` [Compound 47, N-Methyl-N-(2-{methyl-[6-(quinolin-6-yloxy)-pyrazin-2-yl]-amino}-ethyl)-acetamide], the pIC50 was 5.00 to 6.00. For `CNCc1ccc(-c2ccc(Oc3cncc(N(C)CCN(C)C(C)=O)n3)cc2)cn1` [Compound 265, N-Methyl-N-[2-(methyl-{6-[4-(6-methylaminomethyl-pyridin-3-yl)-phenoxy]-pyrazin-2-yl}-amino)-ethyl]-acetamide], the pIC50 was > 6.70.
